What was measured:
[1] = ABTS cationic free radical discoloration assay (antioxidant activity); design: key: TEAC: mM Trolox equivalent to 1 mM tested compound; settings: TEAC = concentration of Trolox having the same antioxidant ability of the tested compound at 1 mM
Description: The cationic free radical ABTS+° discoloration assay assesses the scavenging ability of an antioxidant against a preformed cationic radical (ABTS^+°) compared to Trolox, a hydrosoluble analogue of Vitamin E.

[2] = test system: collagen-induced platelet aggregation; assay: Platelet antiaggregating activity on platelet-enriched plasma; assay type: cell-based
Description: The platelet anti-aggregating effect induced by a series of mediators was tested on platelet-enriched plasma samples.

[3] = test system: KB-3-1 (human oropharyngeal carcinoma); assay: Cytotoxic activity, cell growth inhibition; assay type: cell-based; settings: KB-3-1 cells (FR+); n=4; read-out: IC50, concentration that inhibits the 50% cell growth compared to control cultures
Description: (§1) The studies of cytotoxic activity were carried out on three human cell lines: HT-29 (human colon adenocarcinoma), MCF-7 (human breast adenocarcinoma), and KB-3-1 (human oropharyngeal carcinoma), which cells are characterized by an overexpression of folic acid (FR+) receptors. […], conjugates free from folic acid (PEG-[…]), and the folate conjugates F-PEG-I3C, F-PEG-AD-(I3C)2, and F-PEG-βGlu-(I3C)2 were tested.

[4] = test system: MCF-7 (human breast adenocarcinoma); assay: Cytotoxic activity, cell growth inhibition; assay type: cell-based; settings: MCF-7 cells; n=4; read-out: IC50, concentration that inhibits the 50% cell growth compared to control cultures
Description: as §1

[5] = test system: HT-29 (human colon adenocarcinoma); assay: Cytotoxic activity, cell growth inhibition; assay type: cell-based; settings: HT-29 cells; n=4; read-out: IC50, concentration that inhibits the 50% cell growth compared to control cultures
Description: as §1

[6] = test system: inducible nitric oxide synthetase (iNos) activity in J774A.1 macrophage cells stimulated by LPS; assay: Anti-inflammatory activity: production of nitrites and release of NO; assay type: cell-based; settings: 24 h, J774A.1 macrophages stimulated with LPS of E. coli, n=5
Description: I3C, conjugate derivatives free from folic acid (PEG-I3C), and folate conjugates F-PEG-I3C, F-PEG-AD-(I3C)2, and F-PEG-βGlu-(I3C)2 were tested for their anti-inflammatory activity against the inducible nitric oxide synthetase (iNos) activity in J774A.1 macrophage cells stimulated by LPS and assessing the production of nitrites and the release of NO.
The PEG-I3C conjugates, free from folic acid, show a lower activity, thus indicating a real targeting effect of the folic acid molecule on the activated macrophage cells. […] The data are expressed as the inhibition percentage±s.e.m. vs the production of nitrites during 24 h by J774A.1 macrophage cells treated with LPS alone.

[7] = test system: tumor cells that are positive to the estrogen receptor; settings: a number of in vitro and in vivo studies (background); cited from earlier work

With O=C(O)c1ccc(O)c(O)c1 [3,4-Dihydroxybenzoic acid] the “ABTS assay (TEAC)” value [1] was 4.6 ± 0.18.

For O=c1cc(-c2ccc(O)cc2)oc2cc(O)cc(O)c12 [Apigenin], the “ABTS assay (TEAC)” value [1] was 0.2 ± 0.01.

With O=C(O)/C=C/c1ccc(O)c(O)c1 [Caffeic acid] the “ABTS assay (TEAC)” value [1] was 5.8 ± 0.12.

In the case of OCc1c[nH]c2ccccc12 [Compound I3C, Indole-3-carbinol], the platelet aggregation inhibition ([2]; 3 μM) is reported as 70%, the platelet aggregation inhibition ([2]; 6 μM) is reported as 73% and the platelet aggregation inhibition ([2]; 12 μM) is reported as 78%. The platelet aggregation inhibition ([2]; 25 μM) was 79%, the IC50 [3] was 93 ± 2.1 µM and the IC50 [4] was 30 ± 0.7 µM. For the same molecule, the IC50 [5] was 45.1 ± 1.7 µM, the “Nitrites release inhibition (% vs LPS)” value ([6]; 1 μg/mL) was 10.0 ± 1.1% and the “Nitrites release inhibition (% vs LPS)” value ([6]; 10 μg/mL) was 20.0 ± 0.9 %. The “Nitrites release inhibition (% vs LPS)” value ([6]; 100 μg/mL) was 70.1 ± 1.2 %, the “inhibition of the development of tumor cells positive to the estrogen receptor” value [7] was “up to 90%” and the “ABTS assay (TEAC)” value [1] was 3.8 ± 0.12.

For COc1ccc([C@@H]2CC(=O)c3c(O)cc(O[C@@H]4O[C@H](CO[C@@H]5O[C@@H](C)[C@H](O)[C@@H](O)[C@H]5O)[C@@H](O)[C@H](O)[C@H]4O)cc3O2)cc1O [Hesperidin], the “ABTS assay (TEAC)” value [1] was 0.5 ± 0.09.

With O=c1cc(-c2ccc(O)c(O)c2)oc2cc(O)cc(O)c12 [Luteolin] the “ABTS assay (TEAC)” value [1] was 2.8 ± 0.09.

With O=C1C[C@@H](c2ccc(O)cc2)Oc2cc(O)cc(O)c21 [Naringenin] the “ABTS assay (TEAC)” value [1] was 1.4 ± 0.03.

With C[C@@H]1O[C@@H](O[C@H]2[C@H](Oc3cc(O)c4c(c3)O[C@H](c3ccc(O)cc3)CC4=O)O[C@H](CO)[C@@H](O)[C@@H]2O)[C@H](O)[C@H](O)[C@H]1O [Naringin] the “ABTS assay (TEAC)” value [1] was 0.5 ± 0.01.

For C[C@@H]1O[C@@H](O[C@@H]2[C@@H](O)[C@H](OCCc3ccc(O)c(O)c3)O[C@H](CO)[C@H]2OC(=O)/C=C/c2ccc(O)c(O)c2)[C@H](O)[C@H](O)[C@H]1O [Verbascoside], the “ABTS assay (TEAC)” value [1] was 5.3 ± 0.22.

With “Indole-3-Carbinol-PEG600-Indole-3-Carbinol [I3C-PEG600-I3C]” the “Nitrites release inhibition (% vs LPS)” value ([6]; 1 μg/mL) was 32.2 ± 1.4 %, the “Nitrites release inhibition (% vs LPS)” value ([6]; 10 μg/mL) was 45.7 ± 1.7 % and the “Nitrites release inhibition (% vs LPS)” value ([6]; 100 μg/mL) was 84.3 ± 3.8 %. For the same molecule, the “ABTS assay (TEAC)” value [1] was 5.8 ± 0.41.

With PEG550-Indole-3-Carbinol [PEG550-I3C] the “Nitrites release inhibition (% vs LPS)” value ([6]; 1 μg/mL) was 12.5 ± 0.8%, the “Nitrites release inhibition (% vs LPS)” value ([6]; 10 μg/mL) was 34.1 ± 1.2 % and the “Nitrites release inhibition (% vs LPS)” value ([6]; 100 μg/mL) was 72.5 ± 2.4 %. The “ABTS assay (TEAC)” value [1] was 4.2 ± 0.26.

In the case of Tocopherol, the “ABTS assay (TEAC)” value [1] is reported as 2.1 ± 0.07.
